Measurements taken from patent publication US20260262643A1, “HERBICIDAL BENZOXAZINES” (FMC CORPORATION, priority 2022, published 2026).

Key:
[1] = system: blackgrass; experiment: Test A preemergence; type: in vivo, Alopecurus myosuroides
Outline: (§1)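 Weeds and crops in loam–sand blend were sprayed preemergence onto soil or postemergence at 2–10 cm (one- to two-leaf stage). Test chemicals were in a non-phytotoxic solvent with surfactant. After 10 days in the greenhouse, injury was rated visually against untreated controls on a 0 (no effect) to 100 (complete control) scale.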

[2] = system: corn; experiment: Test A preemergence; type: in vivo, Zea mays
Outline: as §1

[3] = system: foxtail, giant; experiment: Test A preemergence; type: in vivo, Setaria faberi
Outline: as §1

[4] = system: goosegrass; experiment: Test A preemergence; type: in vivo, Eleusine indica
Outline: as §1

[5] = system: kochia; experiment: Test A preemergence; type: in vivo, Bassia scoparia
Outline: as §1

[6] = system: oat, wild; experiment: Test A preemergence; type: in vivo, Avena fatua
Outline: as §1

[7] = system: pigweed, palmer; experiment: Test A preemergence; type: in vivo, Amaranthus palmeri
Outline: as §1

[8] = system: ragweed; experiment: Test A preemergence; type: in vivo, Ambrosia artemisiifolia
Outline: as §1

[9] = system: ryegrass, Italian; experiment: Test A preemergence; type: in vivo, Lolium multiflorum
Outline: as §1

[10] = system: soybean; experiment: Test A preemergence; type: in vivo, Glycine max
Outline: as §1

[11] = system: wheat; experiment: Test A preemergence; type: in vivo, Triticum aestivum
Outline: as §1

[12] = system: blackgrass; experiment: Test A postemergence; type: in vivo, Alopecurus myosuroides
Outline: as §1

[13] = system: corn; experiment: Test A postemergence; type: in vivo, Zea mays
Outline: as §1

[14] = system: foxtail, giant; experiment: Test A postemergence; type: in vivo, Setaria faberi
Outline: as §1

[15] = system: goosegrass; experiment: Test A postemergence; type: in vivo, Eleusine indica
Outline: as §1

[16] = system: kochia; experiment: Test A postemergence; type: in vivo, Bassia scoparia
Outline: as §1

[17] = system: oat, wild; experiment: Test A postemergence; type: in vivo, Avena fatua
Outline: as §1

[18] = system: pigweed, palmer; experiment: Test A postemergence; type: in vivo, Amaranthus palmeri
Outline: as §1

[19] = system: ragweed; experiment: Test A postemergence; type: in vivo, Ambrosia artemisiifolia
Outline: as §1

[20] = system: ryegrass, Italian; experiment: Test A postemergence; type: in vivo, Lolium multiflorum
Outline: as §1

[21] = system: soybean; experiment: Test A postemergence; type: in vivo, Glycine max
Outline: as §1

[22] = system: wheat; experiment: Test A postemergence; type: in vivo, Triticum aestivum
Outline: as §1

[23] = system: galium; experiment: Test A postemergence; type: in vivo, Galium aparine
Outline: as §1

[24] = system: horseweed; experiment: Test A postemergence; type: in vivo, Erigeron canadensis
Outline: as §1

[25] = system: barnyardgrass; experiment: Test B flooded paddy test; type: in vivo, Echinochloa crus-galli; details: 250 g ai/ha, Flood, 13 days, 0 to 100 scale (0 no effect, 100 complete control)
Outline: (§2)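 Species grown to 2-leaf stage; pots flooded 3 cm above soil and compound applied directly to paddy water, depth maintained throughout. After 13 days in greenhouse, plants visually rated against controls on 0–100 scale (0 no effect, 100 complete control); dash means no result.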

[26] = system: ducksalad; experiment: Test B flooded paddy test; type: in vivo, Heteranthera limosa; details: 250 g ai/ha, Flood, 13 days, 0 to 100 scale (0 no effect, 100 complete control)
Outline: as §2

[27] = system: rice; experiment: Test B flooded paddy test; type: in vivo, Oryza sativa; details: 250 g ai/ha, Flood, 13 days, 0 to 100 scale (0 no effect, 100 complete control)
Outline: as §2

[28] = system: sedge, umbrella; experiment: Test B flooded paddy test; type: in vivo, Cyperus difformis; details: 250 g ai/ha, Flood, 13 days, 0 to 100 scale (0 no effect, 100 complete control)
Outline: as §2

[29] = 125 g ai/ha, visual injury after 10 days, 0 to 100 scale, 0 is no effect, 100 is complete control
[30] = 500 g ai/ha, 0 to 100 scale (0 no effect, 100 complete control), 10 days
[31] = 125 g ai/ha, postemergence, 10 days, 0 to 100 scale, 0 no effect, 100 complete control
[32] = 500 g ai/ha, postemergence, 10 days, visual injury, 0 to 100 scale (0 no effect, 100 complete control)
[33] = 125 g ai/ha, postemergence, 10 days, visual injury, 0 to 100 scale (0 no effect, 100 complete control)
[34] = 500 g ai/ha, Postemergence, 0 to 100 scale

CC(C)c1ncn(-c2ccc(O)c(C(=O)N3C[C@H](C)Oc4c(Cl)cccc43)c2)n1 [Compound 105]
0: Plant response rating, Corn [2, 29] | Plant response rating, Corn [2, 30] | Plant response rating, Ragweed [8, 29] | Plant response rating, Ragweed [8, 30] | Plant response rating, Soybean [10, 29] | Plant response rating, Soybean [10, 30] | Plant response rating, Wheat [11, 29] | Goosegrass plant response rating [15, 31] | Ragweed plant response rating [19, 31] | Plant response rating, Ragweed [19, 32] | Ryegrass, Italian plant response rating [20, 31] | Wheat plant response rating [22, 31] | Horseweed plant response rating [24, 31] | Plant response rating, Horseweed [24, 32] | Plant response rating, Barnyardgrass [25] | Plant response rating, Ducksalad [26] | Plant response rating, Rice [27] | Plant response rating, Sedge, Umbrella [28]
70: Plant response rating, Foxtail, Giant [3, 29] | Plant response rating, Oat, Wild [6, 29] | Plant response rating, Oat, Wild [6, 30] | Oat, Wild plant response rating [17, 31] | Plant response rating, Oat, Wild [17, 32] | Soybean plant response rating [21, 31] | Plant response rating, Galium [23, 32]
30: Plant response rating, Pigweed, Palmer [7, 29] | Blackgrass plant response rating [12, 31] | Plant response rating, Blackgrass [12, 32]
40: Plant response rating, Ryegrass, Italian [9, 29] | Pigweed, Palmer plant response rating [18, 31]
20: Plant response rating, Blackgrass [1, 30] | Corn plant response rating [13, 31] | Foxtail, Giant plant response rating [14, 31] | Plant response rating, Ryegrass, Italian [20, 32]
90: Plant response rating, Kochia [5, 30] | Plant response rating, Pigweed, Palmer [7, 30] | Kochia plant response rating [16, 31] | Plant response rating, Kochia [16, 32]
10: Plant response rating, Blackgrass [1, 29] | Plant response rating, Wheat [11, 30] | Plant response rating, Wheat [22, 32]
60: Plant response rating, Goosegrass [4, 29] | Plant response rating, Pigweed, Palmer [18, 32] | Galium plant response rating [23, 31]
80: Plant response rating, Ryegrass, Italian [9, 30] | Plant response rating, Foxtail, Giant [14, 32]
50: Plant response rating, Kochia [5, 29] | Plant response rating, Corn [13, 32] | Plant response rating, Goosegrass [15, 32]
100: Plant response rating, Foxtail, Giant [3, 30] | Plant response rating, Goosegrass [4, 30] | Plant response rating, Soybean [21, 32]

Cc1c(C(=O)N2CC(C)Oc3c(Cl)cccc32)cccc1-n1cncn1 (centres unmarked) [Compound 40]
10: Plant response rating, Kochia [16, 34]
30: Plant response rating, Galium [23, 33]
40: Plant response rating, Soybean [10, 30]
0: Plant response rating, Blackgrass [1, 29] | Plant response rating, Blackgrass [1, 30] | Plant response rating, Corn [2, 29] | Plant response rating, Corn [2, 30] | Plant response rating, Foxtail, Giant [3, 29] | Plant response rating, Foxtail, Giant [3, 30] | Plant response rating, Goosegrass [4, 29] | Plant response rating, Goosegrass [4, 30] | Plant response rating, Kochia [5, 29] | Plant response rating, Kochia [5, 30] | Plant response rating, Oat, Wild [6, 29] | Plant response rating, Oat, Wild [6, 30] | Plant response rating, Pigweed, Palmer [7, 29] | Plant response rating, Pigweed, Palmer [7, 30] | Plant response rating, Ragweed [8, 29] | Plant response rating, Ragweed [8, 30] | Plant response rating, Ryegrass, Italian [9, 29] | Plant response rating, Ryegrass, Italian [9, 30] | Plant response rating, Soybean [10, 29] | Plant response rating, Wheat [11, 29] | Plant response rating, Wheat [11, 30] | Plant response rating, Blackgrass [12, 33] | Plant response rating, Blackgrass [12, 34] | Plant response rating, Corn [13, 33] | Plant response rating, Corn [13, 34] | Plant response rating, Foxtail, Giant [14, 33] | Plant response rating, Foxtail, Giant [14, 34] | Plant response rating, Goosegrass [15, 33] | Plant response rating, Goosegrass [15, 34] | Plant response rating, Kochia [16, 33] | Plant response rating, Oat, Wild [17, 33] | Plant response rating, Oat, Wild [17, 34] | Plant response rating, Pigweed, Palmer [18, 33] | Plant response rating, Pigweed, Palmer [18, 34] | Plant response rating, Ragweed [19, 33] | Plant response rating, Ragweed [19, 34] | Plant response rating, Ryegrass, Italian [20, 33] | Plant response rating, Ryegrass, Italian [20, 34] | Plant response rating, Soybean [21, 33] | Plant response rating, Wheat [22, 33] | Plant response rating, Wheat [22, 34] | Plant response rating, Galium [23, 34] | Plant response rating, Horseweed [24, 33] | Plant response rating, Horseweed [24, 34] | Plant response rating, Barnyardgrass [25] | Plant response rating, Ducksalad [26] | Plant response rating, Rice [27] | Plant response rating, Sedge, Umbrella [28]
20: Plant response rating, Soybean [21, 34]
